The values below come from PMC6694107, “Characterization and overproduction of cell-associated cholesterol oxidase ChoD from Streptomyces lavendulae YAKB-15” (Scientific Reports, 2019).

The subject of this assay is T1, ChoD.
T1 construct: ORF 547 aa including TAT signal; FAD enzyme
Put plainly: ABTS/peroxidase coupled H2O2 assay, […] nm, initial rates. Format: biochemical, Streptomyces lavendulae. The note with it: pH 7 sodium-potassium phosphate, Triton X-100, ethanol (general assay); 8.4 nM enzyme, 4-168 µM cholesterol.

With `CC(C)CCC[C@@H](C)[C@H]1CC[C@H]2[C@@H]3CC=C4C[C@@H](O)CC[C@]4(C)[C@H]3CC[C@]12C` [cholesterol], the Km was 15.9 µM.

The term Km denotes the substrate concentration at which the rate is half of its maximum.
